Laboratory results reported in US20040152746A1, “Treatment of scarring and related conditions using ppar-gamma activators” (priority 2001, published 2004).
Marks after values point to notes of the source that are not given here.

System: Human dermal fibroblasts differentiated to myofibroblasts with TGF-beta1
Experiment: Myofibroblast number after treatment with pioglitazone (alpha-smooth muscle actin immunohistochemistry)
Assay type: cell-based
Details: 3 days differentiation medium with 1 ng/ml TGF-beta1, % positive cells/total cells, control 3.47
Method: Human dermal fibroblasts were cultured on sterile cover-slips and allowed to adhere for 24 hours in fibroblast medium, i.e. (1.0 ml L-Glutamine (200 mM; Gibco), 1.0 ml non-essential amino acids, NEAA(100×; Gibco), 1.0 ml penicillin/streptomycin (100×Gibco), 10 ml new-born calf serum, NBCS (Gibco), 87 ml Dulbecco's modified Eagle's Medium, DMEM (Gibco)). At confluence, the medium was changed to myofibroblast differentiation medium, i.e. 1.0 ml L-Glutamine (200 mM; Gibco), 1.0 ml non-essential amino acids, NEAA(100×; Gibco), 10 ml penicillin/streptomycin (100×Gibco), 1 ml ITS (Insulin, Transferrin, Selenium)(100×Gibco)) supplemented with 1 ng/ml TGF-beta1 (Sigma). Myofibroblast differentiation was allowed to proceed for 3 days either in the presence of variable concentrations of pioglitazone or without. Myofibroblast number was determined by immunohistochemistry according to the following protocol. Cells were washed in phosphate buffered saline (PBS), then fixed in 3% paraformaldehyde for 5 mins followed by quenching in 50 mM ammonium chloride. The cells were then washed and permeabilised with 0.2% Triton X-100 in PBS. All antibodies were diluted into 0.2% fish skin gelatin (FSG) (Sigma). Prior to antibody detection non-specific binding was blocked using 0.2% FSG in PBS. Mouse anti-human alpha-smooth muscle actin (Sigma) was diluted 1:100 and incubated with the cells for 45 mins followed by washing. Rabbit anti-mouse immunoglobulin horseradish-peroxidase secondary antibody was incubated for 30 mins. Visualisation used Fast-DAB (Sigma) according to manufacturer's instructions. Cells were counterstained with haemotoxylin. […] Haemotoxylin stained nuclei were counted by the software using size-exclusion parameters which excluded small and large debris. Accuracy was determined within the software using binary overlays of the counted objects to examine if any non-nuclei counts occurred or if any nuclei were missed. […] DAB positive cells were counted by hand on the captured images. Counts are expressed as % positive cells/total cells.

For `CCc1ccc(CCOc2ccc(CC3SC(=O)NC3=O)cc2)nc1` (stereo not drawn) [pioglitazone], the “% Myofibroblasts” value (0.1 μM pioglitazone, p < 0.05) was 1.81* %, the “% Myofibroblasts” value (1 μM pioglitazone, p < 0.005) was 0.71** % and the “% Myofibroblasts” value (10 μM pioglitazone, p < 0.005) was 0.10** %.
